In brackets after ≈: the same amount, converted by molar mass. Read-outs that look alike come from different tables or passages of the source.
Experiments:
Format in all cases: cell-based
[1] = test system: broad panel of different clinical isolates; assay: microbe, parasite or virus in culture
Procedure, shortened: (§1)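 Per CLSI, MICs by broth microdilution or agar dilution; strains other than streptococci and anaerobes were sub-cultured overnight at 35° C on blood agar, with a final broth inoculum of 5×10^5 CFU/mL.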

E. coli LptD = assay: MIC (broth microdilution or agar dilution, CLSI); conditions: Escherichia coli, read-out: MIC
Procedure, shortened: as §1

E. faecalis ATCC 29212 = assay: MIC (broth microdilution or agar dilution, CLSI); conditions: Enterococcus faecalis, read-out: MIC
Procedure, shortened: as §1

[2] = test system: E. faecalis MMX 847; cErmB; assay: MIC (broth microdilution or agar dilution, CLSI); conditions: Enterococcus faecalis, E. faecalis MMX 847, cErmB
Procedure, shortened: as §1

K. pneumoniae ATCC 10031 = assay: MIC (broth microdilution or agar dilution, CLSI); conditions: Klebsiella pneumoniae, ATCC10031, K. pneumoniae ATCC 10031; read-out: MIC
Procedure, shortened: as §1

S. aureus ATCC 700699 = assay: MIC (broth microdilution or agar dilution, CLSI); conditions: Staphylococcus aureus
Procedure, shortened: as §1

[3] = test system: S. aureus ATCC BAA-1707 (MRSA); assay: MIC (broth microdilution or agar dilution, CLSI)
Procedure, shortened: as §1

S. aureus MMX 3035 cErmA = assay: MIC (broth microdilution or agar dilution, CLSI); conditions: Staphylococcus aureus, MMX3035CERMA; S. aureus MMX 3035 cErmA; read-out: MIC
Procedure, shortened: as §1

S. aureus hVISA = assay: MIC (broth microdilution or agar dilution, CLSI)
Procedure, shortened: as §1

S. pneumoniae ATCC 49619 = assay: MIC (broth microdilution or agar dilution, CLSI); conditions: Streptococcus pneumoniae, read-out: MIC
Procedure, shortened: as §1

S. pneumoniae ATCC 6303 = assay: MIC (broth microdilution or agar dilution, CLSI)
Procedure, shortened: as §1

[4] = test system: S. pneumoniae MMX 3028 cErmB; assay: MIC (broth microdilution or agar dilution, CLSI); conditions: Streptococcus pneumoniae, MMX3028CERMB, S. pneumoniae MMX 3028 cErmB
Procedure, shortened: as §1

[5] = test system: S. pneumoniae MMX 3031 cMefA; assay: MIC (broth microdilution or agar dilution, CLSI); conditions: Streptococcus pneumoniae, MMX3031CMEFA, read-out: MIC
Procedure, shortened: as §1

[6] = test system: S. pyogenes MMX 946; cErmB; assay: MIC (broth microdilution or agar dilution, CLSI); conditions: Streptococcus pyogenes, S. pyogenes MMX 946, cErmB
Procedure, shortened: as §1

CCC[C@@H]1C[C@@H](C(=O)N[C@@H]([C@H]2O[C@H](SC)[C@H](O)[C@@H](O)[C@H]2O)[C@H](C)Cl)N(C)C1 [Clindamycin, clindamycin, reference compound]
MIC ([1]; Neisseria gonorrhoeae, N. gonorrhoeae HAV#702, Clinical): 0.5 µg/mL (≈ 1.18 µM)
MIC ([1]; Staphylococcus aureus, MRSA, S. aureus HAV#220, Line R): > 128 µg/mL
MIC ([1]; Staphylococcus aureus, MSSA, S. aureus HAV#219, Line R): > 128 µg/mL
MIC ([1]; Staphylococcus aureus, S. aureus HAV#051, mecA, norA, spcl, ermA, aad1, aac6′-aph2″): 0.06 µg/mL (≈ 0.141 µM)
MIC ([1]; Staphylococcus aureus, S. aureus HAV#052, mecA, norA, fosB, blaZ): 0.06 µg/mL (≈ 0.141 µM)
MIC ([1]; Staphylococcus aureus, S. aureus HAV#053 mecA, norA, fosB): 0.06 µg/mL (≈ 0.141 µM)
MIC ([1]; Staphylococcus aureus, S. aureus HAV#211, Clinical): > 64 µg/mL
MIC ([1]; Staphylococcus aureus, S. aureus HAV#212, Clinical): 0.125 µg/mL (≈ 0.294 µM)
MIC ([1]; Staphylococcus aureus, S. aureus HAV#213, Clinical): 0.125 µg/mL (≈ 0.294 µM)
MIC ([1]; Staphylococcus aureus, S. aureus HAV#214, Clinical): 0.06 µg/mL (≈ 0.141 µM)
MIC ([1]; Staphylococcus aureus, S. aureus HAV#215, Clinical): 0.125 µg/mL (≈ 0.294 µM)
MIC ([1]; Staphylococcus aureus, S. aureus HAV#216, Clinical, cfr): 128 µg/mL (≈ 301 µM)
MIC ([1]; Staphylococcus aureus, S. aureus HAV#217, cfr): > 128 µg/mL
MIC ([1]; Staphylococcus aureus, VISA, S. aureus HAV#203, Clinical (VISA)): > 64 µg/mL
MIC ([1]; Staphylococcus epidermidis, S. epidermidis HAV# 275 Clinical, cfr): > 128 µg/mL
MIC ([1]; Staphylococcus epidermidis, S. epidermidis HAV# 276, cfr): > 128 µg/mL
MIC ([1]; Staphylococcus epidermidis, S. epidermidis HAV#277, Line R): > 128 µg/mL
MIC ([1]; Staphylococcus epidermidis, S. epidermidis HAV#278 Line R): > 128 µg/mL
MIC ([1]; Staphylococcus epidermidis, S. epidermidis HAV#279, Line R): 0.25 µg/mL (≈ 0.588 µM)
MIC ([1]; Staphylococcus haemolyticus, S. haemolyticus 5052, Line R & Methicillin R): 2 µg/mL (≈ 4.71 µM)
MIC ([1]; Staphylococcus haemolyticus, S. haemolyticus HAV#252, Line R & Methicillin R): 2 µg/mL (≈ 4.71 µM)
MIC ([1]; Streptococcus pneumoniae, ATCC700673, S. pneumoniae HAV#352, ATCC 700673, MDR): > 64 µg/mL
MIC ([1]; Streptococcus pneumoniae, ATCCBAA255, S. pneumoniae HAV#354, ATCC-BAA-255): 0.25 µg/mL (≈ 0.588 µM)
MIC ([1]; Streptococcus pneumoniae, ATCCBAA334, S. pneumoniae HAV#353, ATCC-BAA-334): 0.25 µg/mL (≈ 0.588 µM)
MIC ([1]; Streptococcus pneumoniae, S. pneumoniae HAV#356, Clinical): > 64 µg/mL
MIC ([1]; Streptococcus pneumoniae, S. pneumoniae HAV#358, Clinical): 0.25 µg/mL (≈ 0.588 µM)
MIC (E. coli LptD; E. coli HAV#040, LptD): 4 µg/mL (≈ 9.41 µM)
MIC (E. coli LptD; E. coli LptD): 2 µg/mL (≈ 4.71 µM)
MIC (E. faecalis ATCC 29212; ATCC29212, E. faecalis ATCC 29212): 16 µg/mL (≈ 37.6 µM)
MIC (E. faecalis ATCC 29212; ATCC29212, E. faecalis HAV#005, ATCC 29212): 16 µg/mL (≈ 37.6 µM)
MIC [2]: > 128 µg/mL
MIC ([2]; read-out: MIC): > 64 µg/mL
MIC (K. pneumoniae ATCC 10031): 16 µg/mL (≈ 37.6 µM)
MIC (S. aureus ATCC 700699; ATCC700699): > 128 µg/mL
MIC (S. aureus ATCC 700699; ATCC 700699 / VISA): > 128 µg/mL
MIC ([3]; S. aureus HAV#016, ATCC BAA-1707, MRSA): 0.125 µg/mL (≈ 0.294 µM)
MIC ([3]; Staphylococcus aureus): 0.125 µg/mL (≈ 0.294 µM)
MIC (S. aureus MMX 3035 cErmA): > 64 µg/mL
MIC (S. aureus hVISA; S. aureus HAV#204, hVISA): >128 µg/mL
MIC (S. aureus hVISA; Staphylococcus aureus): > 128 µg/mL
MIC (S. pneumoniae ATCC 49619; ATCC49619, S. pneumoniae ATCC 49619): ≤ 0.06 µg/mL
MIC (S. pneumoniae ATCC 49619; ATCC49619, S. pneumoniae HAV#003, ATCC 49619): 0.06 µg/mL (≈ 0.141 µM)
MIC (S. pneumoniae ATCC 6303; S. pneumoniae HAV#351, ATCC 6303): 0.06 µg/mL (≈ 0.141 µM)
MIC (S. pneumoniae ATCC 6303; Streptococcus pneumoniae, ATCC6303, S. pneumoniae ATCC 6303, read-out: MIC): 0.06 µg/mL (≈ 0.141 µM)
MIC [4]: > 128 µg/mL
MIC ([4]; read-out: MIC): > 64 µg/mL
MIC ([5]; S. pneumoniae HAV#034, MMX 3031, cMefA): < 0.06 µg/mL
MIC ([5]; S. pneumoniae MMX 3031 cMefA): 0.06 µg/mL (≈ 0.141 µM)
MIC [6]: > 128 µg/mL
MIC ([6]; read-out: MIC): > 64 µg/mL
